From patent EP1354200B1, “METHOD OF SCREENING FOR GPR40 LIGANDS” (priority 2000, dated 2002)

How the values were obtained:
Assay type in all cases: cell-based
human GPR40 [1] = target: T1, human GPR40 (Homo sapiens, UniProt O14842); experiment: GAL4/Elk-1 luciferase reporter assay in CHO clones transfected with human GPR40, with and without pertussis toxin; set-up: expressed in transfected cells; host or cells: wild-type CHO cells, transient co-transfection (CMV-GPR40 + 3x-CRE-Luc); conditions: cells containing GPR40, Figure 4B
Source text: (§1) To further test the coupling of GPR40 to Gαi/Gαq a Gal4/Elk-1 reporter was used. A stable, clonal reporter line was created by transfecting CHO cells with a plasmid that contains an expression construct for GAL4/Elk-1 and a GAL4-luciferase reporter construct. A similar reporter system can now be purchased from Stratagene (under the trademark […]®). An expression construct for human GPR40 which contains a G418 resistance construct was transfected into the host CHO GAL4/Elk-1 reporter cell line (10ug plasmid DNA pCR3-GPR40) via electroporation. The cell lines were selected for with 500ug/mL G418 until all cells in the control were dead and clones were then picked. The Gal4/Elk-1 reporter can be activated through Gq or Gi. To confirm coupling via Gi, cells were treated with pertussis toxin treatment which ADP-ribosylates Gαi preventing its interaction with receptors (Bokoch et al., J. Biol. Chem 258:2072 (1983)). Pertussis toxin has no known effect on Gαq.
(§2) Host cells and those transfected with the GPR40 construct were plated in a 96-well tissue culture plate at 2000 cells/well in DMEM/F12 supplemented with 5% FBS. After 48 hours at 37°C at 5% CO2 the cells were placed in serum-free DMEM/F12 in the presence or absence of 1ug/ml pertussis toxin. […]

human GPR40 [2] = target: T1, human GPR40; experiment: FLIPR intracellular calcium assay in HEK-293 cells transiently expressing GPR40 (with G-protein cocktail); conditions: for pEC50 / EC50: Additional Fatty Acid Compounds
Source text: The Fluorometric Imaging Plate Reader (FLIPR™, Molecular Devices, UK) measures intracellular fluorescense in multi-well microplates. Where a GPCR couples to a calcium signalling pathway, the FLIPR system can be used with cells expressing the G-protein coupled receptor and containing calcium-sensitive fluorescent dyes, to monitor the intracellular calcium flux that occurs after activation of the G-coupled receptor. See, e.g., Kirk et al., J. Biomolecular Screening, 1:75 (1996).
(§3) The assays utilized a G-protein cocktail (+GPC) that contained chimeric and promiscuous G-proteins, as is known in the art of screening orphan G-protein coupled receptors.

[3] = system: CHO GAL4/Elk-1 reporter cell line; experiment: GAL4/Elk-1 luciferase reporter assay in host CHO cells (reporter only), with and without pertussis toxin
Source text: as §1, §2

human GPR40 [4] = target: T1, human GPR40; experiment: 3X-CRE-luciferase reporter assay in CHO cells (Gs coupling); set-up: expressed in transfected cells; host or cells: wild-type CHO cells, transient co-transfection (CMV-GPR40 + 3x-CRE-Luc); conditions: CRE-Luc; cells containing reporter only and cells containing GPR40; 4 hours of treatment; Figure 3c
Procedure: Specific coupling was determined in mammalian cells using transient expression of a CRE-luciferase reporter for Gαs and stable cell-lines containing Gal4/ELK-1-luciferase reporter for Gαq/Gαi. Wild-type CHO cells were co-transfected with 3X-CRE-luciferase reporter vector and various amounts of an expression vector for GPR40. The control cells were transfected with reporter vector only. The reporter gene plasmids were produced in house but similar vectors can be purchased from Stratagene ([…]®). Cells were plated in a 24 well tissue culture plate at 1 x 10^4 cells/well in DMEM/F12 supplemented with 5% FBS. After 72 hours at 37°C, 5% CO2, the cells were transfected using the liposomal transfection reagent sold under the trademark LIPOFECTAMINE® and with the following combinations of plasmids: • A- 3x-CRE-Luc • B- 3x-CRE-Luc + CMV-GPR40 • C- 3x-CRE-Luc + CMV-Gs coupled receptor The concentration of reporter plasmid for all wells was 0.15µg/well. Concentrations of receptor plasmids were 0.5, 1.0, 5.0, 10.0 ng/well. After 24hrs Cells containing 1ng/well of receptor plasmid or no DNA control and CRE-Luc reporter were treated with fatty acid or the calcitonin which is known to act through a Gs-coupled receptor (Chakraborty, Science 251: 1078 (1991)) at concentrations indicated. […]

HLTEX11 = experiment: FLIPR intracellular calcium assay in HEK-293 cells transiently expressing control 7TM receptor HLTEX11; conditions: HEK-293 cells transiently expressing HLTEX11; Figure 1
Source text: as §3

PGRW = experiment: FLIPR intracellular calcium assay in HEK-293 cells transiently expressing control 7TM receptor PGRW; conditions: HEK-293 cells transiently expressing PGRW; Figure 1
Source text: as §3

T1 sequence (O14842 whole entry, the tested form may be a part): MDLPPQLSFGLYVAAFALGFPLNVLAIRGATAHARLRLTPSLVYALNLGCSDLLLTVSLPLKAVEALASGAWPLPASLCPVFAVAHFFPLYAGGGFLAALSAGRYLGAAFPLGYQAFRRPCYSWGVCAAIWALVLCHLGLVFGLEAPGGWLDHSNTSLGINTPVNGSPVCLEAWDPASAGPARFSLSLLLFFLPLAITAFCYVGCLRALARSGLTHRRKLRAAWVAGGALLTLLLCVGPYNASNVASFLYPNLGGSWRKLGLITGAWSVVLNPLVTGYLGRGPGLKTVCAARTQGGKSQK

With `CCCCCCCCC#CCC#CCC#CCCCC(=O)O` [5,8,11-Eicosatriynoic acid] the “effect of pertussis toxin treatment on the stimulated luciferase activity” value (human GPR40 [1]; 1ug/ml pertussis toxin) was “not inhibited”, the “luciferase activity compared to basal” value (human GPR40 [1]) was “increased” and the pEC50 (human GPR40 [2]; FLIPR) was 5.77. For the same compound, the luciferase production ([3]; Figure 4B) was “no effect” and the luciferase production (human GPR40 [4]) was “no effect”.

For `CCCCC[C@H](O)[C@H](O)/C=C/C=C/C=C\C/C=C\CCCC(=O)O` [14®, 15(S)-DiHETE], the EC50 (human GPR40 [2]; FLIPR) was 23.4 µM and the pEC50 (human GPR40 [2]; FLIPR) was 4.63.

Work on `C#CCCCCCCCCCCCCCCCC(=O)O` [17-Octadecynoic acid] yielded a pEC50 (human GPR40 [2]; FLIPR) of 5.12.

`CCCCC/C=C\C/C=C\C/C=C\C/C=C\CCCCCC(=O)O` [Adrenic acid] showed an EC50 (human GPR40 [2]; FLIPR) of 13.5 µM and a pEC50 (human GPR40 [2]; FLIPR) of 4.87.

With `CC1=C(/C=C/C(C)=C/C=C/C(C)=C/C=O)C(C)(C)CCC1` [All-trans-retinal] the “Mean pEC50 of 3 expts” value (human GPR40 [2]; mean over experiments (n=1 or n=2 where printed), FLIPR) was 4.16.

Work on `CCCCC/C=C\C/C=C\C/C=C\C/C=C\CCCC(=O)O` [Arachidonic acid] yielded a pEC50 (human GPR40 [2]; FLIPR) of 5.04.

Work on `CCCCC/C=C\C/C=C\C/C=C\CCCCCCC(=O)O` [Dihomo-gamma-linolenic acid] yielded a pEC50 (human GPR40 [2]; FLIPR) of 5.14.

Compound `CC/C=C\C/C=C\C/C=C\C/C=C\C/C=C\CCCCCC(=O)O` [Docosa-7Z,10Z,13Z,16Z,19Z-pentaenoic acid] has a pEC50 (human GPR40 [2]; FLIPR) of 5.33.

For `CC/C=C\C/C=C\C/C=C\CCCCCCCCCCCC(=O)O` [Docosa-13Z,16Z,19Z-trienoic acid], the pEC50 (human GPR40 [2]; FLIPR) was 5.17.

`CC/C=C\C/C=C\C/C=C\C/C=C\C/C=C\CCCC(=O)O` [Eicosa-5Z,8Z,11Z,14Z,17Z-pentaenoic acid] was tested, and the pEC50 (human GPR40 [2]; FLIPR) was 5.17.

`CCCCCCCCCCC/C=C\C/C=C\CCCC(=O)O` [Eicosa-5Z,8Z-dienoic acid] showed a pEC50 (human GPR40 [2]; FLIPR) of 5.11.

For `CC/C=C\C/C=C\C/C=C\CCCCCCCCCC(=O)O` [Eicosa-11Z,14Z,17Z-trienoic acid], the pEC50 (human GPR40 [2]; FLIPR) was 4.95.

`CCCCC/C=C\C/C=C\CCCCCCCCCC(=O)O` [Eicosa-11Z,14Z-dienoic acid] showed a pEC50 (human GPR40 [2]; FLIPR) of 4.97.

For `CCCCCCCC/C=C/CCCCCCCC(=O)O` [Elaidic acid], the pEC50 (human GPR40 [2]; FLIPR) was 4.87, the “FLIPR response (intracellular calcium levels)” value (human GPR40 [2]; HEK-293 cells transiently expressing GPR40, +GPC, Figure 1) was “response detected” and the FLIPR response (HLTEX11) was “No response”. For the same compound, the FLIPR response (PGRW) was “No response”.

For `CCCCCCCC/C=C\CCCCCCCC(=O)OC[C@@H](O)COP(=O)(O)O` [LPA, lysophosphatidic acid (oleoyl)], the “agonist-stimulated reporter activity following pertussis toxin treatment” value ([3]; 1ug/ml pertussis toxin, Figures 4A, 4C) was “completely abolished”.

`CCCCC/C=C\C/C=C\CCCCCCCC(=O)O` [Linoleic acid] showed a pEC50 (human GPR40 [2]; FLIPR) of 5.02.

Compound `CCCCCCCC/C=C\C/C=C\C/C=C\CCCC(=O)O` [Mean acid] has an EC50 (human GPR40 [2]; FLIPR) of 2.51 µM and a pEC50 (human GPR40 [2]; FLIPR) of 5.60.

Work on `CCC=CCC=CCC=CCC=CCC=CC/C=C\CCC(=O)O` [cis-4,7,10,13,16,19-Docosahexaenoic acid] yielded a pEC50 (human GPR40 [2]; FLIPR) of 5.79.

With calcitonin the luciferase production (human GPR40 [4]) was “increase”.
